Article PMC10865871, “Homologous acetone carboxylases select Fe(II) or Mn(II) as the catalytic cofactor” (mBio, 2023)

Columns and labels:
[1] = target: T1, A. aromaticum AC (acetone carboxylase, (αβγ)2) (Aromatoleum aromaticum, UniProt Q5P1N4+Q5P1N5); assay: […] Moessbauer; EPR of Mn(II)-reconstituted enzyme; assay type: binding; settings: 1 mM AMP, pH 7.6, 57Fe(II)-reconstituted, 80 K (Moessbauer); 10 mM AMP, 1 mM MgCl2 (EPR)
T1 construct: gene acxB; recombinant in E. coli BL21(DE3), pET-Duet vectors; N-terminal 6-His tag on beta subunit; (αβγ)2 heterohexamer; with Acetone carboxylase gamma subunit
T1 sequence (Q5P1N4 1-774): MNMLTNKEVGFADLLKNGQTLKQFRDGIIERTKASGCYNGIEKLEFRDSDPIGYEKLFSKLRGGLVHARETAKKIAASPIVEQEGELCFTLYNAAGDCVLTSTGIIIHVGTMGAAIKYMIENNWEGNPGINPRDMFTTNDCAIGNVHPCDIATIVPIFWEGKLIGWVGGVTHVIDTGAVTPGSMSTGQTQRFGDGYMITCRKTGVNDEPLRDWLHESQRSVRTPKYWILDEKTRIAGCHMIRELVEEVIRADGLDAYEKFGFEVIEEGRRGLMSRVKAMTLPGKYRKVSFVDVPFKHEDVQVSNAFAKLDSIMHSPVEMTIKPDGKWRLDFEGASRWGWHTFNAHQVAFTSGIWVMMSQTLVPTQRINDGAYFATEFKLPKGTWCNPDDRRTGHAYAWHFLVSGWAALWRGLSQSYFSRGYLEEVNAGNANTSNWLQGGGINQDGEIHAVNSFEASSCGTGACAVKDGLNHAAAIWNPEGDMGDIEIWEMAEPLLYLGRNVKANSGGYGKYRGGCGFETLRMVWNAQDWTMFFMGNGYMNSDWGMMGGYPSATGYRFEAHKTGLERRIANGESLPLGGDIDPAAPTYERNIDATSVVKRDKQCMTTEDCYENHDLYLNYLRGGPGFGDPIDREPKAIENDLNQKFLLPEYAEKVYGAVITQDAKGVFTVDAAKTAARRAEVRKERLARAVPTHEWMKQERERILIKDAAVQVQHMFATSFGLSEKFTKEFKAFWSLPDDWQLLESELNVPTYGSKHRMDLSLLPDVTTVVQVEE
T1 sequence (Q5P1N5 1-716): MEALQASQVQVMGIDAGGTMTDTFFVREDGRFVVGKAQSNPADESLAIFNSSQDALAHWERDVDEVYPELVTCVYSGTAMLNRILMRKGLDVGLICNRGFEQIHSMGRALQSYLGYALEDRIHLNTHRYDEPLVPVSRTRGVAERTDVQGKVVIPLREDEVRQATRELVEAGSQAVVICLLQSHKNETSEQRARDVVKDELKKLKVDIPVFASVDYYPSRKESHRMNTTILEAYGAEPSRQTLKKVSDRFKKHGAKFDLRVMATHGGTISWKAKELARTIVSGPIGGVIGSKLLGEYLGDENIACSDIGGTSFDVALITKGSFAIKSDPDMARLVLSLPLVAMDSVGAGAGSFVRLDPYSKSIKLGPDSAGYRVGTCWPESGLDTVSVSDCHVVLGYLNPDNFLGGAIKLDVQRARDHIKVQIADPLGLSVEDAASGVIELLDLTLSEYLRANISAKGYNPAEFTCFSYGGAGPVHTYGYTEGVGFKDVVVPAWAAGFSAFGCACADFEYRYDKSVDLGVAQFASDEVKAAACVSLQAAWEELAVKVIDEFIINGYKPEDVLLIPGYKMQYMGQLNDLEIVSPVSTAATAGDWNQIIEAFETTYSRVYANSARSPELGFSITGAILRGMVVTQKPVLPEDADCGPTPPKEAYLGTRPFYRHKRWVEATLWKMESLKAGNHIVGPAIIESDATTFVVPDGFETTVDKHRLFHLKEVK
T1 sequence (Q5P1N3 1-168 partner): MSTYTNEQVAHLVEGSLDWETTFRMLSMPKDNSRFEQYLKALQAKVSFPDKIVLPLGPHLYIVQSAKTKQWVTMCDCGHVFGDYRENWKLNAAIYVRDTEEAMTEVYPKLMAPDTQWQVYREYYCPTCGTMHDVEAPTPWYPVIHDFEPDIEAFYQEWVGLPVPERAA

[2] = target: T2, X. autotrophicus AC (acetone carboxylase, (αβγ)2) (Xanthobacter versatilis, UniProt Q8RM03+Q8RM04); assay: EPR of active-site Mn(II); […] Moessbauer; assay type: binding; settings: 10 mM AMP, 1 mM MgCl2, pH 7.6, 12 K (EPR); Mn(II)-bound enzyme
T2 construct: gene acxB; recombinant in E. coli BL21(DE3), pET-Duet vectors; N-terminal 6-His tag on beta subunit; (αβγ)2 heterohexamer; AMP site in beta, metal site in alpha; with Acetone carboxylase gamma subunit
T2 sequence (Q8RM03 1-776): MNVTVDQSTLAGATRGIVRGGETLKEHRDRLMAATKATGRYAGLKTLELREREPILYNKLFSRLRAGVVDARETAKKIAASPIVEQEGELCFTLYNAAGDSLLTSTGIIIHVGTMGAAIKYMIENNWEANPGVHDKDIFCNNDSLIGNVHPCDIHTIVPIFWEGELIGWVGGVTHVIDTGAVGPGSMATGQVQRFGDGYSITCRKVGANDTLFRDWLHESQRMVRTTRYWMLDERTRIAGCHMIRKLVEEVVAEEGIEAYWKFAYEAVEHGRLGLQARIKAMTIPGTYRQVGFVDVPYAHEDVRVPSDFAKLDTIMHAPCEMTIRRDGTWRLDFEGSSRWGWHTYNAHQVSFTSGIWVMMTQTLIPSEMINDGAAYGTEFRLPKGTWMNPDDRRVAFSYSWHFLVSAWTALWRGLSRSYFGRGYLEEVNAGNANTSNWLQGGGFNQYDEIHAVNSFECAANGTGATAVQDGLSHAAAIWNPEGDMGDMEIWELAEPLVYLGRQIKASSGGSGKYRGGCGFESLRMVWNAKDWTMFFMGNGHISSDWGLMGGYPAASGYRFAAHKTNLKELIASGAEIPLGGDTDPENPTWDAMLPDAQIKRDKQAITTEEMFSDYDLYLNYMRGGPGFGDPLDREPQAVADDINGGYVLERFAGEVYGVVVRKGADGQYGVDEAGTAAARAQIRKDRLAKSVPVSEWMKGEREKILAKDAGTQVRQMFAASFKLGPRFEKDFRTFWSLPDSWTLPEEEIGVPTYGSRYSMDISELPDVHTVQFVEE
T2 sequence (Q8RM04 1-717): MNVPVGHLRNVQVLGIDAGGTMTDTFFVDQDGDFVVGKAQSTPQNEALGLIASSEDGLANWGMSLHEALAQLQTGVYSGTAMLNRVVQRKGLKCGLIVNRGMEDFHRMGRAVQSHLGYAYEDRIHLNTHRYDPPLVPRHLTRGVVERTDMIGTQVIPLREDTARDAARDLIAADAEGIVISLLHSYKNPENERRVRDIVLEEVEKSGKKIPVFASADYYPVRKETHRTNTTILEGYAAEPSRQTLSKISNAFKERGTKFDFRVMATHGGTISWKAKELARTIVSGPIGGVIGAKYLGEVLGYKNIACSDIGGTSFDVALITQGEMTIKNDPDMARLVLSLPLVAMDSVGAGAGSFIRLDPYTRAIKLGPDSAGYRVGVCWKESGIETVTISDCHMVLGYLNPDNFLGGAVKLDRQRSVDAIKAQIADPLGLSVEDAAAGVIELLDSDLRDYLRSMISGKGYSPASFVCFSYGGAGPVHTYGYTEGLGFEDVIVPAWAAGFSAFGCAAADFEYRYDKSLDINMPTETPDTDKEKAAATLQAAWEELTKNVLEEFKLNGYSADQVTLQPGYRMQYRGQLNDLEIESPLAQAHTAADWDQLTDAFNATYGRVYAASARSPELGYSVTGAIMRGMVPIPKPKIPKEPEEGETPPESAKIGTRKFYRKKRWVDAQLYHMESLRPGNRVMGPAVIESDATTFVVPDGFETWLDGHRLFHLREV
T2 sequence (Q8RM02 2-168 partner): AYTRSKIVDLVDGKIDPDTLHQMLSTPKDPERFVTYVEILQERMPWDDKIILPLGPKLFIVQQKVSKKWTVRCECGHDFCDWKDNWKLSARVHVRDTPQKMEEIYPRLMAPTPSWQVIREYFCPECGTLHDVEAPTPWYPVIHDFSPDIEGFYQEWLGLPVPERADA

SMILES: Nc1ncnc2c1ncn2[C@@H]1O[C@H](COP(=O)(O)O)[C@@H](O)[C@H]1O [AMP]
- 57Fe Moessbauer; EPR of Mn(II)-reconstituted enzyme [1]: three of which (blue, red, and orange) were affected by the addition of AMP
- EPR of active-site Mn(II); 57Fe Moessbauer [2]: Upon the addition of MgAMP, the apparent Mn(II) signal sharpened and intensified
